These results are taken from patent publication US20250074902A1, “FUSED BICYCLIC HETEROARYL AMIDE COMPOUND AS PROTEIN AGGREGATION INHIBITOR” (SHANGHAI JINGXIN BIOMEDICAL CO., LTD., priority 2021, published 2025).

In general, inhibition refers to the relative decrease from the control value, in per cent.

In one assay the target is T1, α-synuclein (Homo sapiens, UniProt P37840).
T1 construct: purchased Sino Biological
The experiment in a line: Detection of the ability of compounds to inhibit α-synuclein self-aggregation by HPLC. It is filed as biochemical. The settings on record: test compound 200 μg/mL, α-synuclein 250 μg/ml, 37° C., 9 days; HPLC peak area of α-synuclein multimers vs model group. Here is the method:
The test compound (for poorly soluble compounds, dissolve with an appropriate amount of DMSO first) and fresh α-synuclein monomers (purchased from Sino Biological) were added to pure water to a final protein concentration of 250 μg/ml, and the concentration of the test compound was 200 μg/mL, followed by incubation at 37° C. for 9 days. The peak area of α-synuclein multimers after incubation was detected by HPLC and the inhibition rate was calculated. […] Inhibition rate=(peak area of model group−peak area of example group)/peak area of model group×100%.
For `CCCCC(Cc1c[nH]c2ccccc12)NC(=O)c1cc2ccc(N3CCN(C)CC3)cc2o1` (stereo not drawn) [Example 27, N-(1-(1H-indole-3-yl)hexan-2-yl)-6-(4-methylpiperazine-1-yl) benzofuran-2-carboxamide], the “inhibition rate (%)” value stood at 87.6%.

The same assay, now with this note: test compound 200 μg/mL, α-synuclein 250 μg/ml, 37° C., 9 days; HPLC peak area of α-synuclein multimers vs model group; read-out: inhibition rate (%).
As for `CCCCC(Cc1c[nH]c2ccccc12)NC(=O)c1cc2ccc(N3CCN(C)CC3)nc2s1` (stereo not drawn) [Example 2, N-[1-(1H-indol-3-yl)hexyl-2-yl]-6-(4-methylpiperazin-1-yl) thiophene[2,3-b]pyridine-2-carboxamide], the inhibition at 200 µg/mL was 86.8%. Turning to `CCCCC(Cc1c[nH]c2ccccc12)NC(=O)c1nc2ccc(N3CCN(C)CC3)cc2s1` (stereo not drawn) [Example 4, N-(1-(1H-indol-3-yl)hexane-2-yl)-6-(4-methylpiperazin-1-yl) benzo[d]thiazole-2-carboxamide], the inhibition at 200 µg/mL worked out at 90.6%. Turning to `CCCCC(Cc1c[nH]c2ccccc12)NC(=O)c1cc2cc(F)c(N3CCN(C)CC3)cc2s1` (stereo not drawn) [Example 5, N-(1-(1H-indol-3-yl)hexane-2-yl)-5-fluoro-6-(4-methylpiperazin-1-yl) benzo[b]thiophene-2-carboxamide], the inhibition at 200 µg/mL was 98.6%. On the same count and under the same terms, as for `CCCCC(Cc1c[nH]c2ccccc12)NC(=O)c1cc2c(F)cc(N3CCN(C)CC3)cc2s1` (stereo not drawn) [Example 6, N-(1-(1H-indol-3-yl)hexane-2-yl)-4-fluoro-6-(4-methylpiperazin-1-yl) benzo[b]thiophene-2-carboxamide], the figure is 97.8%. For `CCCCC(Cc1c[nH]c2ccccc12)NC(=O)c1cc2cc(N3CCN(C)CC3)ccc2s1` (stereo not drawn) [Example 7, N-(1-(1H-indol-3-yl)hexane-2-yl)-5-(4-methylpiperazine-1-yl) benzo[b]thiophene-2-carboxamide], the inhibition at 200 µg/mL was found to be 71.5%. For the compound `CCCCC(Cc1c[nH]c2ccccc12)NC(=O)c1cc2cnc(N3CCN(C)CC3)cc2s1` (stereo not drawn) [Example 8, N-(1-(1H-indol-3-yl)hexane-2-yl)-6-(4-methylpiperazin-1-yl) thieno[3,2-c] pyridine-2-carboxamide], the inhibition at 200 µg/mL amounted to 73.7%.

`CCCCC(Cc1c[nH]c2ccccc12)NC(=O)c1cc2c(C)nc(N3CCN(C)CC3)cc2s1` (stereo not drawn) [Example 9, N-(1-(1H-indol-3-yl)hexane-2-yl)-4-methyl-6-(4-methylpiperazin-1-yl) thieno[3,2-c]pyridine-2-carboxamide]: the inhibition at 200 µg/mL amounted to 78.1%.

In the case of `CCCCC(Cc1c[nH]c2ccccc12)NC(=O)c1cc2cccc(N3CCN(C)CC3)c2s1` (stereo not drawn) [Example 10, N-(1-(1H-indol-3-yl)hexane-2-yl)-7-(4-methylpiperazin-1-yl) benzo[b]thiophene-2-carboxamide], the inhibition at 200 µg/mL is 73.1%. In the case of `CCCCC(Cc1c[nH]c2ccccc12)NC(=O)c1sc2cc(N3CCN(C)CC3)ccc2c1C` (stereo not drawn) [Example 11, N-(1-(1H-indol-3-yl)hexane-2-yl)-3-methyl-6-(4-methylpiperazin-1-yl) benzo[b]thiophene-2-carboxamide], the inhibition at 200 µg/mL stood at 73.4%. Regarding `CCCCC(Cc1c[nH]c2ccccc12)NC(=O)c1cc2ccc(N3CCC(C)CC3)cc2s1` (stereo not drawn) [Example 12, N-(1-(1H-indol-3-yl)hexane-2-yl)-6-(4-methylpiperidin-1-yl) benzo[b]thiophene-2-carboxamide], the inhibition at 200 µg/mL is 86.9%. As for `CCCCC(Cc1c[nH]c2ccccc12)NC(=O)c1cc2ccc(N3CCN(C(C)C)CC3)cc2s1` (stereo not drawn) [Example 13, N-(1-(1H-indol-3-yl)hexane-2-yl)-6-(4-isopropylpiperazin-1-yl) benzo[b]thiophene-2-carboxamide], the inhibition at 200 µg/mL was determined as 94.4%. Regarding `CCCCC(Cc1c[nH]c2ccccc12)NC(=O)c1cc2ccc(N3CCN(c4ccccc4)CC3)cc2s1` (stereo not drawn) [Example 14, N-(1-(1H-indol-3-yl)hexane-2-yl)-6-(4-phenylpiperazine-1-yl) benzo[b]thiobene-2-carboxamide], the inhibition at 200 µg/mL came out at 73.5%. Consider `CCCCC(Cc1c[nH]c2ccccc12)NC(=O)c1cc2ccc(N3CCC(F)(F)CC3)cc2s1` (stereo not drawn) [Example 15, N-(1-(1H-indol-3-yl)hexane-2-yl)-6-(4,4-difluoropiperidin-1-yl) benzo[b]thiophene-2-carboxamide], for which the inhibition at 200 µg/mL came out at 96.2%. Still for that read-out and setting: the figure for `CCCCC(Cc1c[nH]c2ccccc12)NC(=O)c1cc2ccc(N3CCC(C)(C)CC3)cc2s1` (stereo not drawn) [Example 16, N-(1-(1H-indol-3-yl)hexane-2-yl)-6-(4,4-dimethylpiperidin-1-yl) benzo[b]thiobene-2-carboxamide] is 96.3%; for `CCCCC(Cc1c[nH]c2ccccc12)NC(=O)c1cc2ccc(N3CCN(C)CC3)c(F)c2s1` (stereo not drawn) [Example 17, 7-Fluoro-N-[1-(1H-indol-3-yl)hexyl-2-yl]-6-(4-methylpiperazin-1-yl)-1-benzothiophene-2-carboxamide] it is 98.2%; for `CCCCC(Cc1c[nH]c2ccccc12)NC(=O)c1cc2cnc(N3CCC(C)CC3)cc2s1` (stereo not drawn) [Example 18, N-(1-(1H-indol-3-yl)hexane-2-yl)-6-(4-methylpiperidin-1-yl) thieno[3,2-c]pyridine-2-carboxamide] it is 76.9%. Consider `CCCCC(Cc1c[nH]c2ccccc12)NC(=O)c1cc2ccc(N3CCC(O)CC3)cc2s1` (stereo not drawn) [Example 19, N-(1-(1H-indol-3-yl)hexane-2-yl)-6-(4-hydroxypiperidin-1-yl) benzo[b]thiophene-2-carboxamide], for which the inhibition at 200 µg/mL was 93.5%.

On to `CCCCC(Cc1c[nH]c2ccccc12)NC(=O)c1cc2ccc(N3CCC4(CC3)COC4)cc2s1` (stereo not drawn) [Example 20, N-[1-(1H-indol-3-yl)hexane-2-yl]-6-(2-oxa-7-azaspiro [3.5]nonan-7-yl)-1-benzothiophene-2-carboxamide], for which the inhibition at 200 µg/mL worked out at 95.6%. As for `CCCCC(Cc1c[nH]c2ccccc12)NC(=O)c1cc2ccc(N3CCC4(CC3)CN(C3CCN(C)CC3)C4)cc2s1` (stereo not drawn) [Example 21], the inhibition at 200 µg/mL turned out to be 78.2%. On the same count and under the same terms, as for `CCCCC(Cc1c[nH]c2ccccc12)NC(=O)c1cc2ccc(N3CCC4(CC3)CN(C)C4)cc2s1` (stereo not drawn) [Example 22], the figure is 83.8%; as for `CCCCC(Cc1c[nH]c2ccccc12)NC(=O)c1cc2ccc(N3CCOCC3)cc2s1` (stereo not drawn) [Example 23, N-(1-(1H-indol-3-yl)hexane-2-yl)-6-morpholinobenzo[b]thiophene-2-carboxamide], 89.7%; as for `CCCCC(Cc1c[nH]c2ccccc12)NC(=O)c1cc2ccc(N3CCC(N(C)C)CC3)cc2s1` (stereo not drawn) [Example 24, N-(1-(1H-indol-3-yl)hexane-2-yl)-6-(4-(dimethylamino)piperidin-1-yl) benzo[b]thiophene-2-carboxamide], 89.7%.

Turning to `CCCCC(Cc1c[nH]c2ccccc12)NC(=O)c1cc2ccc(N3CC4(CN(C)C4)C3)cc2s1` (stereo not drawn) [Example 25, N-(1-(1H-indol-3-yl)hexane-2-yl)-6-(6-methyl-2,6-diazaspiro [3.3]heptane-2-yl) benzo[b]thiophene-2-carboxamide], the inhibition at 200 µg/mL amounted to 90.8%. Take `CCCCC(Cc1c[nH]c2ccc(F)cc12)NC(=O)c1cc2ccc(N3CCN(C)CC3)cc2s1` (stereo not drawn) [Example 26, N-(1-(5-fluoro-1H-indole-3-yl)hexane-2-yl)-6-(4-methylpiperazine-1-yl) benzo [b] thiophene-2-carboxamide]: the inhibition at 200 µg/mL worked out at 93.3%. Regarding `CCCCC(Cc1c[nH]c2ccccc12)NC(=O)c1cc2ccc(N3CCN(C)CC3)cc2[nH]1` (stereo not drawn) [Example 28, N-(1-(1H-indole-3-yl)hexane-2-yl)-6-(4-methylpiperazine-1-yl)-1H-indole-2-carboxamide], the inhibition at 200 µg/mL was determined as 73%.

Consider `CCCCC(Cc1c[nH]c2ccccc12)NC(=O)c1cc2cnc(N3CCN(C)CC3)nc2s1` (stereo not drawn) [Example 29, N-(1-(1H-indole-3-yl)hexane-2-yl)-2-(4-methylpiperazine-1-yl) thieno [2,3-d]pyrimidine-6-carboxamide], for which the inhibition at 200 µg/mL was 96.7%. With `CCCCC(Cc1c[nH]c2ccc(C)cc12)NC(=O)c1cc2ccc(N3CCN(C)CC3)cc2s1` (stereo not drawn) [Example 30, N-(1-(5-methyl-1H-indole-3-yl)hexane-2-yl)-6-(4-methylpiperazine-1-yl) benzo[b]thiophene-2-carboxamide], the inhibition at 200 µg/mL was 71.4%. For `CCCCC(Cc1c[nH]c2ccncc12)NC(=O)c1cc2ccc(N3CCN(C)CC3)cc2s1` (stereo not drawn) [Example 31, N-(1-(1H-pyrrole[3,2-c]pyridin-3-yl)hexane-2-yl)-6-(4-methylpiperazine-1-yl) benzo[b]thiophene-2-carboxamide], the inhibition at 200 µg/mL was 95.3%.

Regarding `CC(C)=CCC(Cc1c[nH]c2ccccc12)NC(=O)c1cc2ccc(N3CCN(C)CC3)cc2s1` (stereo not drawn) [Example 32, N-(1-(1H-indol-3-yl)-5-methyl-4-hexene-2-yl)-6-(4-methylpiperazin-1-yl) benzo[b]thiophene-2-carboxamide], the inhibition at 200 µg/mL was found to be 86.1%. In the case of `CC(C)CCC(Cc1c[nH]c2ccccc12)NC(=O)c1cc2ccc(N3CCN(C)CC3)cc2s1` (stereo not drawn) [Example 33, N-(1-(1H-indol-3-yl)-5-methylhexane-2-yl)-6-(4-methylpiperazin-1-yl) benzo[b]thiophene-2-carboxamide], the inhibition at 200 µg/mL is 93.4%. For the compound `COCCC(Cc1c[nH]c2ccccc12)NC(=O)c1cc2ccc(N3CCN(C)CC3)cc2s1` (stereo not drawn) [Example 34, N-[1-(CH-indol-3-yl)-4-methoxybutyl-2-yl]-6-(4-methylpiperazin-1-yl)-1-benzothiophene-2-carboxamide], the inhibition at 200 µg/mL worked out at 97.5%. As to `C/C=C\CC(Cc1c[nH]c2ccccc12)NC(=O)c1cc2ccc(N3CCN(C)CC3)cc2s1` (stereo not drawn) [Example 35, (Z)—N-(1-(1H-indol-3-yl)-4-hexene-2-yl)-6-(4-methylpiperazin-1-yl) benzo[b]thiophene-2-carboxamide], the inhibition at 200 µg/mL was determined as 85.4%.
